Measured values: patent US10350210B2, “EGFR and ALK dual inhibitor” (PRECEDO PHARMACEUTICALS CO., LTD, priority 2015, dated 2019)

Assays:
Type in all cases: cell-based
NCI-H1975 = assay: Growth of cancer cells (Cell Titer-Glo viability), NCI-H1975; settings: Homo sapiens; NCI-H1975 (EGFR L858R/T790M double mutant), 72 hrs
Method in brief: (§1)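 Cells are counted as viable by CellTiter-Glo chemiluminescence. Murine BaF3 lines depend on a stably transfected TEL-fused kinase after IL-3 withdrawal, and the NSCLC lines express mutant EGFR.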

PC-9 = assay: Growth of cancer cells (Cell Titer-Glo viability), PC-9; settings: Homo sapiens; PC-9 (EGFR delE746_A750 mutant), 72 hrs
Method in brief: as §1

HCC827 = assay: Growth of cancer cells (Cell Titer-Glo viability), HCC827; settings: Homo sapiens; HCC827 (mutant EGFR del19), 72 hrs
Method in brief: (§2)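 BaF3, TEL-kinase fusion, IL-3-free, transgene-driven growth; HCC827 = EGFR del19, NCI-H3255 = EGFR L858R. Viable cells via CellTiter-Glo, plate-reader luminescence.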

NCI-H3122 = assay: Growth of cancer cells (Cell Titer-Glo viability), NCI-H3122; settings: Homo sapiens; NCI-H3122 (expressing ALK gene), 72 hrs; read-out: GI50
BaF3 = assay: Cell growth (Cell Titer-Glo viability), BaF3; settings: BaF3 mouse primary B cell, 72 hrs
BaF3-TEL-INSR = assay: Cell growth (Cell Titer-Glo viability), BaF3-TEL-INSR; settings: Mus musculus; BaF3-TEL-INSR (stably expressing INSR protein), 72 hrs
Text: (§3) By testing the effect of the novel kinase inhibitors on the proliferation of cancer cells, the selectivity of the compounds of the present disclosure in inhibiting the proliferation of cancer cells was further assessed. In this example, human non-small cell lung cancer cell NCI-H1975 (expressing EGFR L858R/T790M double mutant gene), human skin squamous carcinoma cell A431 (expressing wild-type EGFR gene), non-small cell lung cancer NCI-H3255 (expressing EGFR L858R mutant gene), non-small cell lung cancer cell NCI-H3122 (expressing ALK gene), human non-small cell lung cancer cell A549 (expressing wild-type EGFR gene), human non-small cell lung cancer cell NCI-H2122 (expressing wild-type EGFR gene), human non-small cell lung cancer cell NCI-H460 (expressing wild-type EGFR gene), human non-small cell lung cancer cell PC-9 (expressing EGFR delE746_A750 mutant gene), Chinese hamster ovary cell CHO (Cricetulus griseus, hamster, Chinese, ovary), Chinese hamster lung cell CHL, human non-small cell lung cancer cell HCC827 (expressing mutant EGFR del19 gene), human lung adenocarcinoma cell HCC4006 (expressing mutant EGFR del19 gene), human non-small cell lung cancer cell NCI-H2228 (expressing wild-type ALK gene), and mouse primary B cell BaF3 were used, and the above cells were all purchased from ATCC (US). In addition, mouse BaF3-TEL-ALK (stably expressing ALK kinase), mouse BaF3-ALK-F1174L (stably expressing mutant ALK F1174L kinase), mouse BaF3-NPM-ALK (stably expressing ALK kinase), mouse BaF3-TEL-EGFR (stably expressing EGFR kinase), mouse BaF3-TEL-EGFR-T790M (stably expressing EGFR T790M mutant kinase), mouse BaF3-FL-EGFR-Del19 (stably expressing EGFR delE746_A750 mutant kinase), mouse BaF3-TEL-EGFR-L858R (stably expressing EGFR L858R mutant kinase), mouse BaF3-FL-EGFR-T790M-L858R (stably expressing EGFR T790M/L858R mutant kinase), mouse BaF3-TEL-INSR (stably expressing INSR protein), mouse BaF3-TEL-IGF1R (stably expressing IGF1R Protein), mouse BaF3-EML4-ALK (stably expressing EML4-ALK Protein), mouse BaF3-TEL-JAK3 (stably expressing JAK3 kinase protein), mouse BaF3-TEL-CSF1R (stably expressing CSF1R protein), and mouse BaF3-TEL-ALK-F1196M (stably expressing ALK F1196M mutant kinase) were also used in this example. The above cell lines were all established by our laboratory via the following process: kinase proteins or protein domain sequences of human ALK, ALK F1174L, EGFR, EGFR T790M, EGFR delE746_A750, EGFR L858, EGFR T790M/L858R, INSR, IGF1R, EML4-ALK, JAK3, CSF1R, ALK F1196M were amplified respectively by PCR, and were respectively inserted into MSCV-Puro vector (Clontech) with N-terminal TEL fragments and/or NPM fragments and/or TPR fragments; the resultants were stably transfected into mouse BaF3 cells by the means of retrovirus, and the IL-3 growth factors were removed, and eventually the ALK, ALK F1174L, EGFR, EGFR T790M, EGFR delE746_A750, EGFR L858, EGFR T790M/L858R, INSR, IGF1R, EML4-ALK, JAK3, CSF1R, ALK F1196M-transferred protein dependent cell lines were obtained.
(§4) The number of viable cells was determined quantitatively by a microplate reader using Cell Titer-Glo® (Promega, US) chemiluminescence cell viability assay kit.

BaF3-EML4-ALK = assay: Cell growth (Cell Titer-Glo viability), BaF3-EML4-ALK; settings: Mus musculus, Ba/F3 EML4-ALK; BaF3-EML4-ALK (stably expressing EML4-ALK protein), 72 hrs
Text: as §3, §4

BaF3-TEL-JAK3 = assay: Cell growth (Cell Titer-Glo viability), BaF3-TEL-JAK3; settings: Mus musculus; BaF3-TEL-JAK3 (stably expressing JAK3 kinase protein), 72 hrs
Text: as §3, §4

BaF3-TEL-CSF1R = assay: Cell growth (Cell Titer-Glo viability), BaF3-TEL-CSF1R; settings: Mus musculus; BaF3-TEL-CSF1R (stably expressing CSF1R protein), 72 hrs
Text: as §3, with “The above cell lines were all established by our laboratory via the following process: kinase proteins or protein domain sequences of human ALK, ALK F1174L, EGFR, EGFR T790M, EGFR delE746_A750, EGFR L858, EGFR T790M/L858R, INSR, IGF1R, EML4-ALK, JAK3, CSF1R, ALK F1196M were amplified respectively by PCR, and were respectively inserted into MSCV-Puro vector (Clontech) with N-terminal TEL fragments and/or NPM fragments and/or TPR fragments; the resultants were stably transfected into mouse BaF3 cells by the means of retrovirus, and the IL-3 growth factors were removed, and eventually the ALK, ALK F1174L, EGFR, EGFR T790M, EGFR delE746_A750, EGFR L858, EGFR T790M/L858R, INSR, IGF1R, EML4-ALK, JAK3, CSF1R, ALK F1196M-transferred protein dependent cell lines were obtained.” left out
as §4

BaF3-TEL-ALK = assay: Cell growth (Cell Titer-Glo viability), BaF3-TEL-ALK; settings: Mus musculus; BaF3-TEL-ALK (stably expressing ALK kinase), 72 hrs
Method in brief: as §2

BaF3-NPM-ALK = assay: Cell growth (Cell Titer-Glo viability), BaF3-NPM-ALK; settings: Mus musculus; BaF3-NPM-ALK (stably expressing ALK kinase), 72 hrs
BaF3-TEL-ALK-F1196M = assay: Cell growth (Cell Titer-Glo viability), BaF3-TEL-ALK-F1196M; settings: Mus musculus; BaF3-TEL-ALK-F1196M (ALK F1196M mutant kinase), 72 hrs
Text: By testing the effect of the novel kinase inhibitors on the proliferation of cancer cells, the selectivity of the compounds of the present disclosure in inhibiting the proliferation of cancer cells was further assessed. In this example, human non-small cell lung cancer cell NCI-H1975 (expressing EGFR L858R/T790M double mutant gene), human skin squamous carcinoma cell A431 (expressing wild-type EGFR gene), non-small cell lung cancer NCI-H3255 (expressing EGFR L858R mutant gene), non-small cell lung cancer cell NCI-H3122 (expressing ALK gene), human non-small cell lung cancer cell A549 (expressing wild-type EGFR gene), human non-small cell lung cancer cell NCI-H2122 (expressing wild-type EGFR gene), human non-small cell lung cancer cell NCI-H460 (expressing wild-type EGFR gene), human non-small cell lung cancer cell PC-9 (expressing EGFR delE746_A750 mutant gene), Chinese hamster ovary cell CHO (Cricetulus griseus, hamster, Chinese, ovary), Chinese hamster lung cell CHL, human non-small cell lung cancer cell HCC827 (expressing mutant EGFR del19 gene), human lung adenocarcinoma cell HCC4006 (expressing mutant EGFR del19 gene), human non-small cell lung cancer cell NCI-H2228 (expressing wild-type ALK gene), and mouse primary B cell BaF3 were used, and the above cells were all purchased from ATCC (US). […]
as §4

| Structure (SMILES) | GI50 (NCI-H1975) [nM] | GI50 (PC-9) [nM] | GI50 (HCC827) [nM] | GI50 (NCI-H3122) [nM] | GI50 (BaF3) [nM] | GI50 (BaF3-TEL-INSR) [nM] | GI50 (BaF3-EML4-ALK) [nM] | GI50 (BaF3-TEL-JAK3) [nM] | GI50 (BaF3-TEL-CSF1R) [nM] | GI50 (BaF3-TEL-ALK) [nM] | GI50 (BaF3-NPM-ALK) [nM] | GI50 (BaF3-TEL-ALK-F1196M) [nM] |
| --- | --- | --- | --- | --- | --- | --- | --- | --- | --- | --- | --- | --- |
| C=CC(=O)Nc1cc(Nc2ncc(Cl)c(Nc3ccccc3C(=O)NC)n2)c(OC)cc1N1CCN(C2CCCCC2)CC1 [Compound 70, 2-(2-(5-acrylamido-4-(4-cyclohexylpiperazin-1-yl)-2-methoxyphenylamino)-5-chloropyrimidin-4-ylamino)-N-methylbenzamide] | 65 | 35 | 140 | 7.6 | 1000 | < 0.3 | 4.5 | 58 | 170 | – | – | – |
| C=CC(=O)Nc1cc(Nc2ncc(Cl)c(Nc3ccccc3C(=O)NC)n2)c(OC)cc1N1CCN(C2CCN(C)CC2)CC1 [Compound 72, 2-(2-(5-acrylamido-2-methoxy-4-(4-(1-methylpiperidin-4-yl)piperazin-1-yl)phenylamino)-5-chloropyrimidin-4-ylamino)-N-methylbenzamide] | 120 | 120 | 210 | 18 | 1700 | 49 | 71 | 290 | 370 | – | – | – |
| C=CC(=O)Nc1cc(Nc2ncc(F)c(Nc3ccccc3S(=O)(=O)C(C)C)n2)c(OC)cc1N1CCN(CC)CC1 [Compound 82, N-(2-(4-ethylpiperazin-1-yl)-5-(5-fluoro-4-(2-(isopropylsulfonyl)phenylamino)pyrimidin-2-ylamino)-4-methoxyphenyl)acrylamide] | 48 | 14 | – | 2 | 3000 | 7 | – | – | – | 1 | 1 | 6 |

Continued, values first:

| GI50 (NCI-H1975) [nM] | GI50 (PC-9) [nM] | GI50 (HCC827) [nM] | GI50 (NCI-H3122) [nM] | GI50 (BaF3) [nM] | GI50 (BaF3-TEL-INSR) [nM] | GI50 (BaF3-EML4-ALK) [nM] | GI50 (BaF3-TEL-JAK3) [nM] | GI50 (BaF3-TEL-CSF1R) [nM] | GI50 (BaF3-TEL-ALK) [nM] | GI50 (BaF3-NPM-ALK) [nM] | GI50 (BaF3-TEL-ALK-F1196M) [nM] | Structure (SMILES) |
| --- | --- | --- | --- | --- | --- | --- | --- | --- | --- | --- | --- | --- |
| 12 | 2 | 16 | 4.3 | 940 | 8.4 | 12 | 9 | 150 | – | – | – | C=CC(=O)Nc1cc(Nc2ncc(Cl)c(Nc3ccccc3C(=O)NC)n2)c(OC)cc1N(C)CCN(C)C [Compound 71, 2-(2-(5-acrylamido-4-((2-(dimethylamino)ethyl)(methyl)amino)-2-methoxyphenylamino)-5-chloropyrimidin-4-ylamino)-N-methylbenzamide] |
| < 0.3 | 58 | – | 2 | 380 | < 0.3 | – | – | – | 1 | < 0.3 | < 0.3 | C=CC(=O)Nc1cc(Nc2ncc(Br)c(Nc3ccccc3S(=O)(=O)C(C)C)n2)c(OC)cc1N1CCN(CC)CC1 [Compound 83, N-(5-(5-bromo-4-(2-(isopropylsulfonyl)phenylamino)pyrimidin-2-ylamino)-2-(4-ethylpiperazin-1-yl)-4-methoxyphenyl)acrylamide] |
